Data on five molecules can be found in patent US10845369B2, “Sampling devices and methods of use” (3M INNOVATIVE PROPERTIES COMPANY, priority 2008, dated 2020).

Data set [1] can be described thus: Moisture retention by premoistened swab devices during extended storage. Type of data set: physicochemical. The source says:
Rapid Cleanliness Test swab sampling devices, sold under the trade name CLEAN-TRACE, were obtained from 3M Health Care (Bridgend, UK). Sterile Dacron swabs were obtained from Puritan Medical Products Company (Guilford, Me.). Foil pouches (160 mm (w)×270 mm (1) heat-sealable PET/foil/LDPE laminate pouches) were obtained from Westfield Medical Ltd. (Bath, UK). The analytical balance (model GR-300) was obtained from A&D Mercury Pty., (Thebarton, South Australia)
The swabs were removed from the CLEAN-TRACE devices and replaced with dry, sterile Dacron swabs. Half of the replacement swabs were dipped in solution I (see Table 1) for 20 seconds, tapped on the edge of a sterilin container 5 times (to remove excess swabbing solution), and the swabs were weighed before each CLEAN-TRACE tube was reassembled with a moistened swab. The remaining replacement swabs were similarly moistened with solution II (Table 1), weighed, and reassembled in the tubes.
The initial weight (T0) of each moistened swab was recorded. The reassembled tubes were placed into individual plastic pouches, which were heat-sealed. Care was taken to minimize the amount of air sealed in each pouch. The pouches were divided into two groups. One group was placed into a refrigerator which was held at a temperature of 4±3 degrees Celsius. The other group was placed into a chamber which was held at 25±1 degree Celsius. Sets of ten replicate tubes were removed from each chamber at each specified time point, the tubes were removed from the pouch and weighed, and the weights were recorded.
(§1) Swabs were prepared as described in Example 1. The swabs were tested for moisture retention as described in Example 1, for compatibility with luciferase enzyme as described in Example 3, and for perdurable detectable residue as described in Example 4. In these experiments, the swab effectiveness parameter was not recorded. All concentrations are listed as percent weight/volume. Solution I-moistened swabs were used as controls for all comparisons. Inhibition of luciferase activity was scored as significant when the measurement from the test swab was <90% of the activity observed with the control swabs. The inhibition was scored as very significant when the measurement from the test swab was <50% of the activity observed with the control swabs.

Another data set has as its system luciferase enzyme. Briefly: ATP detection activity test in CLEAN-TRACE devices (compatibility with luciferase enzyme). Type of data set: biochemical.
Description: The swabs were removed from the CLEAN-TRACE devices and replaced with dry, sterile Dacron swabs. One-third of the replacement swabs were dipped in solution I (see Table 1) for 20 seconds, tapped on the edge of a sterilin container 5 times (to remove excess swabbing solution), and the CLEAN-TRACE tube was reassembled with the moistened swab. One-third of the remaining replacement swabs were similarly moistened with solution II (Table 1) containing 2% (w/v) 1,2-propanediol and reassembled in the tubes. The remaining one-third were similarly moistened with solution II (Table 1) containing 5% (w/v) 1,2-propanediol and reassembled in the tubes. The reassembled devices were sealed in pouches containing 10 devices per pouch and stored at 4 degrees Celsius for 24 hours.
An ATP stock solution was prepared by reconstituting freeze-dried ATP with 500 microliters of autoclaved R.O. water to a working strength of […]. A 10-microliter aliquot of the ATP working solution was pipetted onto the middle of the bud of the test devices prepared for this Example (see above).
Individual devices were activated by plunging the handle of the swab into the test devices, thereby breaking the barrier and exposing the swab bud to the reagent solution containing luciferin. The tubes were then shaken for 20 seconds at speed 7 on the wrist action shaker (Stuart Scientific, Staffordshire, England) and the device was read device in a UNI-LITE luminometer (3M Healthcare, Bridgend, U.K.). Twenty replicate swabs were tested at each time point for each swab solution. Background readings (negative controls) were run at each time point by activating devices, containing one of the Solutions (I, IIa, or IIb), which was not spiked with the ATP solution. Ten devices were used for each negative control condition at each time point.
as §1

Setting [2] is: 5% w/v in Solution II, vs Solution I control.
The mark [3] stands for this setting: 5% w/v, vs Solution I control swabs.
Where [4] appears, read: 1% w/v in Solution II, vs Solution I control.

For `OCC(O)CO` [Glycerol], the Moisture retention result is “Comparable to sorbitol and propylene glycol” in data set [1] (1, 5% tested); “Comparable to sorbitol and propylene glycol” in data set [1] (10, 20, 50% tested). Also, the “Compatibility with luciferase enzyme” value in the data set on luciferase enzyme (up to 5% (1, 5% tested)) is “No inhibition up to 5%”.

As for `CC(=O)NCCO` [Incromectant (N-Acetylethanolamine), N-Acetylethanolamine], the Moisture retention in data set [1] (setting [2]) is reported as 5% solution was comparable to PG. Further, the “Compatibility with luciferase enzyme” value in the data set with luciferase enzyme (setting [3]) was “Some inhibition at 5%”.

For `CC(O)CO` (centres unmarked) [Propylene glycol (1,2-propanediol), 1,2-propanediol], the Moisture retention result in data set [1] (setting [4]) is listed as “No significant improvement”; in data set [1] (≥5% (5, 6, 8% tested)) it was “Significant improvement ≥5%”; in data set [1] (≥5% (10. 20, 25, 50% tested)), “Significant improvement ≥5%”. Also, the “Compatibility with luciferase enzyme” value in the data set on luciferase enzyme (1, 2, 3, 4% tested) is “No inhibition”; in the data set with luciferase enzyme (5, 6, 8% tested), “No inhibition”.

In the case of `CC(O)C(=O)[O-].[Na+]` (centres unmarked) [Sodium lactate], the Moisture retention entry in data set [1] (5 or 10% soln.) is listed as “No significant improvement with 5 or 10%”. Further, the “Compatibility with luciferase enzyme” value with luciferase enzyme (setting [3]) is recorded as “Significant inhibition”.

Regarding `OC[C@@H](O)[C@@H](O)[C@H](O)[C@@H](O)CO` [Sorbitol], the Moisture retention entry in data set [1] (setting [4]) is reported as “No significant improvement with 1%”; in data set [1] (setting [2]), “Slight improvement with 5%”; in data set [1] (≥10% (10, 20, 30, 40, 50, 100% tested)), “Significant improvement with ≥10%”. Moreover, the “Compatibility with luciferase enzyme” value is listed as “No inhibition” with luciferase enzyme (1% w/v, vs Solution I control swabs) and “No inhibition” in the data set with luciferase enzyme (setting [3]).
